Read-outs that look alike come from different tables or passages of the source.
Assays:
rat aortic rings = assay: Contraction and endothelium dependent relaxation of rat aortic rings; conditions: mean (±SEM)
Description: Male Sprague-Dawley rats (200-250 g) were euthanized with an overdose of sodium pentobarbital (100 mg/kg, i.p.) and bled. The thoracic aorta was excised and cleaned and rings 3-4 mm in length were cut, taking care not to disturb the endothelium The rings were suspended in tissue baths containing a physiologic salt solution. The solution was bubbled continuously with O2/CO2 (95%/5%), and maintained at 37° C. Contraction activity was recorded on a Grass polygraph. After equilibration for at least 1 h under 1.5 g of tension, tissues were contracted submaximally (approximately 80% of Emax) with 1 μM phenylephrine. […] This concentration of acetylcholine is sufficient to produce maximum endothelium dependent relaxation in intact rings.
Rings were washed with physiological salt solution three times over the next 45 min. prior to the subsequent testing. Beginning with a concentration determined in preliminary experiments to be below the threshold for relaxation, and increased until a relaxation of approximately 15% was achieved (relative to the relaxation induced by 3 μM acetycholine).

human platelets [1] = assay: Human platelet aggregation trial with thrombin as aggregating agent; assay type: cell-based
Description: (§1) Human platelet aggregation trials, using PAF and thrombin as aggregating agents, were conducted with gallic acid, catechin and amidated catechin multimers (made according to the process of Example 1). The protocol was as follows: Test compounds (50 μM gallic acid, 100 μM catechin and 3 μM amidated catechin multimer) were dissolved in water and 10 μl of sample was added to 1 ml aliquots of human platelets to give the final estimated vessel content concentration of 3 μM.^1 Next, human platelets at a concentration of 1×10^−7/ml were preincubated for ten minutes at 37° C. with either vehicle (contol) or with 3 μM of the amino-catechin multimer test compound. Then, either platelet activating factor (5×10^−10 μM) or thrombin (0.05 mg/ml) were added and aggregation was monitored over the next 10 minutes in a PACKS-4 Platelet Aggregation Chromogenic Kinetic System (Helena Lab., Beaumont, Tex.). ^1 The molar concentration of total product was 10 μM. […] For molar calculations, the molecular weight of the amino-catechin was presumed to be 300 daltons.

human platelets [2] = assay: Human platelet aggregation trial with platelet activating factor (PAF) as aggregating agent; assay type: cell-based
Description: as §1

[3] = Preliminary ex-vitro trials: cholesterol solubility in human plasma
From the text: Limonene is commonly thought of as a solvent, having a KB value of 67.

Q: For `CC(=O)OCC[N+](C)(C)C` [acetylcholine], which EC50 (rat aortic rings; rat aortic rings contracted with 1 μM phenylephrine, read-out: EC50 for EDR (endothelium dependent relaxation)) is on record?
A: 0.12 ± 0.06 µM

Q: For `O.Oc1cc(O)c2c(c1)O[C@H](c1ccc(O)c(O)c1)[C@@H](O)C2` [catechin], which “inhibition of human platelet aggregation caused by thrombin” value (human platelets [1]; 100 μM) is on record?
A: no inhibition

Q: And the “inhibition of human platelet aggregation caused by platelet activating factor” value (human platelets [2]; 100 μM)?
A: no inhibition

Q: Which “inhibition of human platelet aggregation caused by thrombin” value (human platelets [1]; 50 μM) does the source give for `O=C(O)c1cc(O)c(O)c(O)c1` [gallic acid] here?
A: no inhibition

Q: What about the “inhibition of human platelet aggregation caused by platelet activating factor” value (human platelets [2]; 50 μM) of the same compound?
A: no inhibition

Q: For `C=C(C)C1CC=C(C)CC1` (centres unmarked) [limonene, 4-isopropenyl-1-methylcyclohexene], which “rate of plasma metabolizing excess cholesterol” value ([3]; minimum rate) is on record?
A: ≥ 4 % per hour

Q: What about the “increase of the rate of solubility of cholesterol” value ([3]; over a one hour period) of the same compound?
A: 24%

Q: Which EC50 (rat aortic rings; rat aortic rings, read-out: EC50 value for phenylephrine (contractile effect)) does the source give for `CNC[C@H](O)c1cccc(O)c1` [phenylephrine] here?
A: 0.14 ± 0.02 µM

From US6562864B1, “Catechin multimers as therapeutic drug delivery agents” (priority 1999, dated 2003)
